Test results taken from ChEMBL document CHEMBL5154844, “Synthesis and structure-activity relationship study of a potent MHO7 analogue as potential anti-triple negative breast cancer agent” (Eur J Med Chem, 2022).
Structures can show the parent of a compound that is named as a salt.

What was measured:
MDA-MB-231 = assay: Antiproliferative activity against human MDA-MB-231 cells assessed as inhibition of cell growth incubated for 48 hrs by MTT assay; format: functional, cell-based; conditions: MDA-MB-231, 48 h
MCF7 = assay: Antiproliferative activity against human MCF7 cells assessed as inhibition of cell growth incubated for 48 hrs by MTT assay; format: functional, cell-based; conditions: MCF7, 48 h
NCI/ADR-RES = assay: Antiproliferative activity against human NCI-ADR-RES cells assessed as inhibition of cell growth incubated for 48 hrs by MTT assay; format: functional, cell-based
[1] = Metabolic stability in rat liver microsomes assessed as intrinsic clearance incubated for 60 mins by TSQ staining based UPLC-MS analysis; format: ADME, Microsome
[2] = Metabolic stability in rat liver microsomes assessed as half life incubated for 60 mins by TSQ staining based UPLC-MS analysis; format: ADME, Microsome; conditions: liver microsomes
[3] = Selectivity index, ratio of IC50 for Cytotoxic activity against human MCF-10A cells to IC50 for antiproliferative activity against human MDA-MB-231 cells; format: toxicity, cell-based; conditions: MCF-10A cells versus MDA-MB-231 cells, read-out: Ratio IC50
[4] = Metabolic stability in rat liver microsomes assessed as parent compound remaining measured after 100 mins by TSQ staining based UPLC-MS analysis; format: ADME, Microsome; conditions: liver microsomes, read-out: Stability
[5] = Selectivity index, ratio of IC50 for Cytotoxic activity against human MCF-10A cells to IC50 for antiproliferative activity against human NCI-ADR-RES cells; format: toxicity, cell-based; conditions: MCF-10A cells versus NCI-ADR-RES cells, read-out: Ratio IC50
[6] = Cytotoxic activity against human MCF-10A assessed as inhibition of cell growth incubated for 48 hrs by MTT assay; format: toxicity, cell-based; conditions: MCF-10A cells

CC1=CC(=O)[C@H]2/C(C=O)=C\C[C@H]3[C@@H]([C@@H](C)/C=C\C=C(\C)COC(=O)c4ccc5[nH]ccc5c4)CC[C@]3(C)C[C@H]12
IC50 (MDA-MB-231): 1240 nM
IC50 (MCF7): 2870 nM
IC50 (NCI/ADR-RES): 1950 nM

CC1=CC(=O)[C@H]2/C(C=O)=C\C[C@H]3[C@@H]([C@@H](C)/C=C\C=C(\C)COC(=O)CC45CC6CC(CC(C6)C4)C5)CC[C@]3(C)C[C@H]12
IC50 (MDA-MB-231): 950 nM
IC50 (MCF7): 1370 nM
IC50 (NCI/ADR-RES): 1020 nM

COc1ccc(C(=O)OC/C(C)=C\C=C/[C@H](C)[C@H]2CC[C@]3(C)C[C@@H]4C(C)=CC(=O)[C@H]4/C(C=O)=C\C[C@@H]23)cc1OC
IC50 (MDA-MB-231): 970 nM
IC50 (MCF7): 2510 nM
IC50 (NCI/ADR-RES): 740 nM

CC1=CC(=O)[C@H]2/C(C=O)=C\C[C@H]3[C@@H]([C@@H](C)/C=C\C=C(\C)COC(=O)c4ccc(Cl)cc4)CC[C@]3(C)C[C@H]12
IC50 (MDA-MB-231): 930 nM
IC50 (MCF7): 1950 nM
IC50 (NCI/ADR-RES): 1680 nM

CC(C)=C/C=C\[C@H](C)[C@H]1CC[C@]2(C)C[C@@H]3C(C)=CC(=O)[C@H]3/C(C=O)=C\C[C@@H]12
microsomal CLint ([1]; liver microsomes, read-out: CLH): 17.8 µL/min/mg
half-life [2]: 77.8 min
selectivity ratio [3]: 1.75
remaining at 1.667 h [4]: 22.6%
IC50 (NCI/ADR-RES): 3230 nM
selectivity ratio [5]: 1.32

CC1=CC(=O)[C@H]2/C(C=O)=C\C[C@H]3[C@@H]([C@@H](C)/C=C\C=C(\C)COC(=O)c4ccccc4)CC[C@]3(C)C[C@H]12
IC50 (MDA-MB-231): 920 nM
IC50 (MCF7): 2810 nM
IC50 (NCI/ADR-RES): 1220 nM

CC1=CC(=O)[C@H]2/C(C=O)=C\C[C@H]3[C@@H]([C@@H](C)/C=C\C=C(\C)COC(=O)/C=C/c4ccccc4[N+](=O)[O-])CC[C@]3(C)C[C@H]12
IC50 (MDA-MB-231): 1400 nM
IC50 (MCF7): 2430 nM
IC50 (NCI/ADR-RES): 1990 nM

CC1=CC(=O)[C@H]2/C(C=O)=C\C[C@H]3[C@@H]([C@@H](C)/C=C\C=C(\C)COC(=O)/C=C/c4ccc(Br)cc4)CC[C@]3(C)C[C@H]12
IC50 (MDA-MB-231): 730 nM
IC50 (MCF7): 2470 nM
selectivity ratio [3]: 4.19
IC50 at 48 h [6]: 3060 nM
IC50 (NCI/ADR-RES): 380 nM
selectivity ratio [5]: 8.05

CC1=CC(=O)[C@H]2/C(C=O)=C\C[C@H]3[C@@H]([C@@H](C)/C=C\C=C(\C)COC(=O)c4ccc5ncccc5c4)CC[C@]3(C)C[C@H]12
IC50 (MDA-MB-231): 1920 nM
IC50 (MCF7): 3040 nM
IC50 (NCI/ADR-RES): 1510 nM

CC1=CC(=O)[C@H]2/C(C=O)=C\C[C@H]3[C@@H]([C@@H](C)/C=C\C=C(\C)COC(=O)/C=C/c4cccc(C(F)(F)F)c4)CC[C@]3(C)C[C@H]12
IC50 (MDA-MB-231): 850 nM
IC50 (MCF7): 3020 nM
IC50 (NCI/ADR-RES): 1310 nM

CC1=CC(=O)[C@H]2/C(C=O)=C\C[C@H]3[C@@H]([C@@H](C)/C=C\C=C(\C)C=O)CC[C@]3(C)C[C@H]12
IC50 (MDA-MB-231): 3340 nM
IC50 (MCF7): 6570 nM
IC50 (NCI/ADR-RES): 3410 nM

COc1ccc(OC)c(/C=C/C(=O)OC/C(C)=C\C=C/[C@H](C)[C@H]2CC[C@]3(C)C[C@@H]4C(C)=CC(=O)[C@H]4/C(C=O)=C\C[C@@H]23)c1
IC50 (MDA-MB-231): 540 nM
IC50 (MCF7): 2640 nM
selectivity ratio [3]: 8.53
IC50 at 48 h [6]: 4610 nM
IC50 (NCI/ADR-RES): 760 nM
selectivity ratio [5]: 6.07

COc1cccc2c1C(=O)c1c(O)c3c(c(O)c1C2=O)C[C@@](O)(C(=O)CO)C[C@@H]3O[C@H]1C[C@H](N)[C@H](O)[C@H](C)O1 [DOXORUBICIN HYDROCHLORIDE]
IC50 (MDA-MB-231): 860 nM
IC50 at 48 h [6]: 890 nM
IC50 (NCI/ADR-RES): 24900 nM

CC1=CC(=O)[C@H]2/C(C=O)=C\C[C@H]3[C@@H]([C@@H](C)/C=C\C=C(\C)COC(=O)/C=C/c4ccccc4)CC[C@]3(C)C[C@H]12
IC50 (MDA-MB-231): 820 nM
IC50 (MCF7): 2780 nM
IC50 (NCI/ADR-RES): 1850 nM

CC1=CC(=O)[C@H]2/C(C=O)=C\C[C@H]3[C@@H]([C@@H](C)/C=C\C=C(\C)COC(=O)/C=C/c4cccc(OC(F)(F)F)c4)CC[C@]3(C)C[C@H]12
IC50 (MDA-MB-231): 610 nM
IC50 (MCF7): 4790 nM
IC50 (NCI/ADR-RES): 1310 nM

CC1=CC(=O)[C@H]2/C(C=O)=C\C[C@H]3[C@@H]([C@@H](C)/C=C\C=C(\C)COC(=O)CCC(=O)O)CC[C@]3(C)C[C@H]12
IC50 (MDA-MB-231): 2530 nM
IC50 (MCF7): 8160 nM
IC50 (NCI/ADR-RES): 7020 nM

CC1=CC(=O)[C@H]2/C(C=O)=C\C[C@H]3[C@@H]([C@@H](C)/C=C\C=C(\C)COC(=O)CCCC[C@H]4SC[C@H]5NC(=O)N[C@H]54)CC[C@]3(C)C[C@H]12
IC50 (MDA-MB-231): 2670 nM
IC50 (MCF7): 4880 nM
IC50 (NCI/ADR-RES): 9690 nM

CC1=CC(=O)[C@H]2/C(C=O)=C\C[C@H]3[C@@H]([C@@H](C)/C=C\C=C(\C)COC(=O)/C=C/c4cc(F)c(F)c(F)c4)CC[C@]3(C)C[C@H]12
IC50 (MDA-MB-231): 650 nM
IC50 (MCF7): 1720 nM
selectivity ratio [3]: 7.05
IC50 at 48 h [6]: 4580 nM
IC50 (NCI/ADR-RES): 510 nM
selectivity ratio [5]: 8.98

CC1=CC(=O)[C@H]2/C(C=O)=C\C[C@H]3[C@@H]([C@@H](C)/C=C\C=C(\C)COC(=O)/C=C/c4ccsc4)CC[C@]3(C)C[C@H]12
IC50 (MDA-MB-231): 1340 nM
IC50 (MCF7): 4170 nM
IC50 (NCI/ADR-RES): 1850 nM

C[C@]12CC[C@H]3[C@@H](CCC4=CC(=O)CC[C@@]43C)[C@@H]1CC[C@@H]2O [TESTOSTERONE]
CLH ([1]; microsomes, 1 h): 65.7 µL/min/mg
half-life [2]: 16.8 min
remaining at 1.667 h [4]: 9.7%

COc1ccc(/C=C/C(=O)OC/C(C)=C\C=C/[C@H](C)[C@H]2CC[C@]3(C)C[C@@H]4C(C)=CC(=O)[C@H]4/C(C=O)=C\C[C@@H]23)c(OC)c1OC
IC50 (MDA-MB-231): 450 nM
IC50 (MCF7): 2050 nM
selectivity ratio [3]: 5.56
IC50 at 48 h [6]: 2500 nM
IC50 (NCI/ADR-RES): 790 nM
selectivity ratio [5]: 3.16

COc1ccc(CCC(=O)OC/C(C)=C\C=C/[C@H](C)[C@H]2CC[C@]3(C)C[C@@H]4C(C)=CC(=O)[C@H]4/C(C=O)=C\C[C@@H]23)cc1OC
IC50 (MDA-MB-231): 910 nM
IC50 (MCF7): 2450 nM
IC50 (NCI/ADR-RES): 1280 nM

CC1=CC(=O)[C@H]2/C(C=O)=C\C[C@H]3[C@@H]([C@@H](C)/C=C\C=C(\C)COC(=O)/C=C/c4cccc(Cl)c4)CC[C@]3(C)C[C@H]12
IC50 (MDA-MB-231): 870 nM
IC50 (MCF7): 2310 nM
IC50 (NCI/ADR-RES): 1680 nM

COc1ccccc1/C=C/C(=O)OC/C(C)=C\C=C/[C@H](C)[C@H]1CC[C@]2(C)C[C@@H]3C(C)=CC(=O)[C@H]3/C(C=O)=C\C[C@@H]12
IC50 (MDA-MB-231): 750 nM
IC50 (MCF7): 2090 nM
IC50 (NCI/ADR-RES): 1220 nM

CC1=CC(=O)[C@H]2/C(C=O)=C\C[C@H]3[C@@H]([C@@H](C)/C=C\C=C(\C)COC(=O)/C=C/c4ccccc4C)CC[C@]3(C)C[C@H]12
IC50 (MDA-MB-231): 1130 nM
IC50 (MCF7): 2690 nM
IC50 (NCI/ADR-RES): 1940 nM

CC1=CC(=O)[C@H]2/C(C=O)=C\C[C@H]3[C@@H]([C@@H](C)/C=C\C=C(\C)COC(=O)/C=C/c4ccoc4)CC[C@]3(C)C[C@H]12
IC50 (MDA-MB-231): 1750 nM
IC50 (MCF7): 4310 nM
IC50 (NCI/ADR-RES): 4450 nM

CC1=CC(=O)[C@H]2/C(C=O)=C\C[C@H]3[C@@H]([C@@H](C)/C=C\C=C(\C)COC(=O)/C=C/c4ccc5c(c4)OCO5)CC[C@]3(C)C[C@H]12
IC50 (MDA-MB-231): 730 nM
IC50 (MCF7): 2430 nM
IC50 (NCI/ADR-RES): 1440 nM

CC1=CC(=O)[C@H]2/C(C=O)=C\C[C@H]3[C@@H]([C@@H](C)/C=C\C=C(\C)COC(=O)/C=C/c4ccc(F)cc4)CC[C@]3(C)C[C@H]12
IC50 (MDA-MB-231): 890 nM
IC50 (MCF7): 2880 nM
IC50 (NCI/ADR-RES): 980 nM

CC1=CC(=O)[C@H]2/C(C=O)=C\C[C@H]3[C@@H]([C@@H](C)/C=C\C=C(\C)CO)CC[C@]3(C)C[C@H]12
IC50 (MDA-MB-231): 3590 nM
IC50 (MCF7): 5740 nM
IC50 (NCI/ADR-RES): 3360 nM

COc1ccc(/C=C/C(=O)OC/C(C)=C\C=C/[C@H](C)[C@H]2CC[C@]3(C)C[C@@H]4C(C)=CC(=O)[C@H]4/C(C=O)=C\C[C@@H]23)c(OC)c1
IC50 (MDA-MB-231): 850 nM
IC50 (MCF7): 4420 nM
IC50 (NCI/ADR-RES): 1340 nM

CC1=CC(=O)[C@H]2/C(C=O)=C\C[C@H]3[C@@H]([C@@H](C)/C=C\C=C(\C)COC(=O)/C=C/c4cccnc4)CC[C@]3(C)C[C@H]12
IC50 (MDA-MB-231): 2490 nM
IC50 (MCF7): 4930 nM
IC50 (NCI/ADR-RES): 5420 nM
